# Like-named read-outs stand apart in the source and are kept apart here.
# Columns and labels:
# [1] = system: Penicillinsensitive S. aureus (5 strains); experiment: MIC, two-fold serial agar dilution, group (G+)-Ia; type: cell-based; conditions: Staphylococcus aureus, read-out: Geometric Mean of MIC
# Method: (§1) In the primary evaluation of the compounds of this invention, the Minimum Inhibitory Concentrations (MIC's) of the compounds were determined by the two-fold serial agar dilution method in Mueller-Hinton agar against 32 strains of test organisms in six groups. The sample weights of the test compounds were adjusted according to the purity of each compound, so as to give a more accurate measure of the MIC's.
# (G+)Ia: Penicillinsensitive S. aureus (5 strains)
# [2] = system: Penicillinresistant S. aureus (5 strains); experiment: MIC, two-fold serial agar dilution, group (G+)-Ib; type: cell-based; conditions: Staphylococcus aureus, read-out: Geometric Mean of MIC
# Method: as §1
# (G+)Ib: Penicillinresistant S. aureus (5 strains)
# [3] = system: Cephalothinsensitive E. coli (2 strains), Kl. pneumoniae (1 strain) and Pr. mirabilis (2 strains); experiment: MIC, two-fold serial agar dilution, group (G-)-Ia; type: cell-based; conditions: 5 strains, Mueller-Hinton agar, read-out: Geometric Mean of MIC
# Method: as §1
# (G-)Ia: Cephalothinsensitive E. coli (2 strains), Kl. pneumoniae (1
# strain) and Pr. mirabilis (2 strains)
# [4] = system: Cephalothinresistant E. coli (3 strains) and Kl. pneumoniae (3 strains); experiment: MIC, two-fold serial agar dilution, group (G-)-Ib; type: cell-based; conditions: Escherichia coli, read-out: Geometric Mean of MIC
# Method: as §1
# (G-)Ib: Cephalothinresistant E. coli (3 strains) and Kl. pneumoniae (3
# [5] = system: M. morganii (1 strain), Ent. cloacae (2 strains) and Ser. marcescens (2 strains); experiment: MIC, two-fold serial agar dilution, group (G-)-II; type: cell-based; conditions: read-out: Geometric Mean of MIC
# Method: as §1
# (G-)II: M. morganii (1 strain), Ent. cloacae (2 strains) and Ser.
# [6] = system: Ps. aeruginosa (6 strains); experiment: MIC, two-fold serial agar dilution, group (G-)-III; type: cell-based; conditions: Pseudomonas aeruginosa, read-out: Geometric Mean of MIC
# Method: as §1
# (G-)III: Ps. aeruginosa (6 strains)
# [7] = Mouse blood levels after single intramuscular injection; type: in vivo, mice; conditions: in vivo, im, 20 mg/kg
# Method: The absorption of some of the preferred compounds were determined in mice following a single intramuscular injection of the test compound (dissolved in 0.1M phosphate buffer; pH 7) at a dosage of 20 mg/kg. Blood samples were collected from the orbital sinuses into heparinized capillary tubes and assayed in Nutrient Agar (pH 6.6) using E. coli Ess-22-31 as the test organism. The blood levels at various time intervals, the half-life values (t1/2) and the areas under the curve (AUC) are shown in Table 2.
# [8] = (G+)-Ia, 5 strains, Mueller-Hinton agar
# [9] = (G+)-Ib, 5 strains, Mueller-Hinton agar
# [10] = (G-)-III, 6 strains, Mueller-Hinton agar
# [11] = (G-)-II, 5 strains, Mueller-Hinton agar
Structure (SMILES),"MIC [1, 8] [µg/mL]","MIC [2, 9] [µg/mL]",MIC [3] [µg/mL],MIC [4] [µg/mL],MIC [5] [µg/mL],"MIC [6, 10] [µg/mL]",AUC [7] [ng·h/mL],concentration at 10 min [7] [ng/mL],concentration at 20 min [7] [ng/mL],concentration at 0.5 h [7] [ng/mL],concentration at 40 min [7] [ng/mL],concentration at 50 min [7] [ng/mL],concentration at 1 h [7] [ng/mL],concentration at 1.5 h [7] [ng/mL],concentration at 2 h [7] [ng/mL],half-life [7] [min],MIC [2] [µg/mL],MIC [6] [µg/mL],"MIC [5, 11] [µg/mL]",MIC [1] [µg/mL]
"CCO/N=C(\C(=O)NC1C(=O)N2C(C(=O)[O-])=C(C[n+]3ccc4scnc4c3)CSC12)c1csc(N)n1 (stereo not drawn) [Ib, 7-[(Z)-2-(2-Aminothiazol-4-yl)-2-ethoxyiminoacetamido]-3-{(5-thiazolo[4,5-c]pyridino)methyl}-3-cephem-4-carboxylate]",0.42,0.96,0.035,0.22,0.32,2.6,8400,15000,22000,8400,6100,3800,920,680,430,19,–,–,–,–
"Nc1nc(/C(=N/OCC(=O)O)C(=O)NC2C(=O)N3C(C(=O)[O-])=C(C[n+]4ccc5sc(N)nc5c4)CS[C@H]23)cs1 (stereo partly drawn) [Ig, 7-[(Z)-2-(2-Aminothiazol-4-yl)-2-(carboxymethoxyimino)acetamido]-3-(2-amino-5-thiazolo[4,5-c]pyridinio)methyl-3-cephem-4-carboxylate]",2.1,–,0.0072,0.3,0.1,–,15000,21000,17000,15000,10000,7600,6300,1900,840,22,3.6,1.8,–,–
"CO/N=C(\C(=O)NC1C(=O)N2C(C(=O)[O-])=C(C[n+]3ccc4sc(C)nc4c3)CSC12)c1csc(N)n1 (stereo not drawn) [Ih, 7-[(Z)-2-(2-Aminothiazol-4-yl)-2-methoxyiminoacetamido]-3-[{5-(2-methylthiazolo[4,5-c]pyridinio)}methyl]-3-cephem-4-carboxylate]",0.34,0.78,0.007,0.058,0.11,2.3,8600,16000,10000,6900,5900,4100,3000,790,130,16,–,–,–,–
"CCO/N=C(\C(=O)NC1C(=O)N2C(C(=O)[O-])=C(C[n+]3ccc4sc(N)nc4c3)CSC12)c1csc(N)n1 (stereo not drawn) [Ij, 7-[(Z)-2-(2-Aminothiazol-4-yl)-2-ethoxyiminoacetamido]-3-[{5-(2-aminothiazolo[4,5-c]pyridinio)}methyl]-3-cephem-4-carboxylate]",0.36,0.48,0.02,0.17,–,3,–,–,–,–,–,–,–,–,–,–,–,–,0.24,–
"CC(C)(O/N=C(\C(=O)NC1C(=O)N2C(C(=O)[O-])=C(C[n+]3ccc4sc(N)nc4c3)CSC12)c1csc(N)n1)C(=O)O (stereo not drawn) [Io, 7-[(Z)-2-(2-Aminothiazol-4-yl)-2-(2-carboxyprop-2-oxyimino)-acetamido]-3-[{5-(2-aminothiazolo[4,5-c]pyridinio)}methyl]-3-cephem-4-carboxylate]",–,3.8,0.023,0.47,–,1.5,–,–,–,–,–,–,–,–,–,–,–,–,0.66,1.6
"CNC(=O)Nc1nc2c[n+](CC3=C(C(=O)[O-])N4C(=O)C(NC(=O)/C(=N\OC)c5csc(N)n5)[C@H]4SC3)ccc2s1 (stereo partly drawn) [Ir, 7-[(Z)-2-(2-Aminothiazol-4-yl)-2-methoxyiminoacetamido]-3-[2-(3-methylureido)-5-thiazolo[4,5-c]pyridinio]methyl-3-cephem-4-carboxylate]",–,0.8,0.025,0.46,–,5.2,–,–,–,–,–,–,–,–,–,–,–,–,0.52,0.4
